Source: ChEMBL document CHEMBL1157942, “Bioactive diterpenes from the fruits of Detarium microcarpum” (2006)

Tested on: Cladosporium cucumerinum
Experiment: Antifungal activity against Cladosporium cucumerinum after 3 days
Type: functional

| Compound | Activity |
| --- | --- |
| C/C(=C\C(=O)O)CC[C@]1(C)[C@H](C)CC[C@]2(C)[C@H]1CC[C@H](O)[C@@]2(C)O | >100 µg |
| CC1=CC(=O)C[C@H]2[C@](C)(CC/C(C)=C/C(=O)O)[C@H](C)CC[C@@]12C | 100 µg |
| CC1=CC(=O)C[C@H]2[C@](C)(CC/C(C)=C/C(=O)O)[C@@H](C)CC[C@]12C | >100 µg |
| C/C(=C\C(=O)O)CC[C@@]1(C)[C@H]2CC[C@H]3O[C@@]3(C)[C@@]2(C)CC[C@@H]1C | 10 µg |
| C/C(=C/C(=O)O)CC[C@]1(C)[C@@H](C)CC[C@]2(C)[C@H]1CC[C@@H](O)[C@@]2(C)O | 10 µg |
| C=C1CC[C@@H]2C(C)(C)CCC[C@@]2(C)[C@@H]1CC/C(C)=C/C(=O)O [COPALIC ACID] | >100 µg |
| Clc1ccc(COC(Cn2ccnc2)c2ccc(Cl)cc2Cl)c(Cl)c1 (configuration not stated) [MICONAZOLE] | 1 µg |
